Experimental data from patent US7776862B2, “Pyridyl and phenyl substituted piperazine-piperidines with CXCR3 antagonist activity” (Schering Corporation, priority 2005, dated 2010).

Each compound was assayed against T1, human CXCR3 (N-delta 4) (Homo sapiens, UniProt P49682) (assay: Human CXCR3 (N-delta 4) scintillation proximity assay (SPA), [125I] IP-10 binding). Settings: IC50 rating; Ba/F3-hCXCR3 (N-delta 4) membranes, 25 pM [125I] IP-10.
T1 construct: CD8 leader; Flag tag; expressed in transfected cells; membranes used
T1 sequence (P49682 5-368 limits assumed): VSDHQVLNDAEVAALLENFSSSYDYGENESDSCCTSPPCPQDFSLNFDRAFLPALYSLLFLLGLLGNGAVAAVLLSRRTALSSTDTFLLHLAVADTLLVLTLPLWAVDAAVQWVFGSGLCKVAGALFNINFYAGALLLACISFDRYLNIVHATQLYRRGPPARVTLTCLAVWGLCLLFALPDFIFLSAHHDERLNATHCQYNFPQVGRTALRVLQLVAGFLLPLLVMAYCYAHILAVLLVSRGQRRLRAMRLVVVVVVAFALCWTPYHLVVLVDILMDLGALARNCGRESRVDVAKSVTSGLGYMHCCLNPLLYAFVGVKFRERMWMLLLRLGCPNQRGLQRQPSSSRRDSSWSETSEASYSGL
Text: The inventive compounds can readily be evaluated to determine activity at the CXCR3 receptors by known methods, such as, for example, development of a human CXCR3 (N-delta 4) Binding Assay.
Cloning and expression of human CXCR3 (N-delta 4):
The DNA encoding human CXCR3 was cloned by PCR using human genomic DNA (Promega, Madison, Wis.) as a template. The PCR primers were designed based on the published sequence of human orphan receptor GPR9 (1) with incorporated restriction sites, a Kozak consensus sequence, CD8 leader and Flag tag. The PCR product was subcloned into the mammalian expression vector pME18Sneo, a derivative of the SR-alpha expression vector (designated as pME18Sneo-hCXCR3 (N-delta 4).
IL-3-dependent mouse pro-B cells Ba/F3 were transfected by electroporation in 0.4 ml Dulbecco's PBS containing 4×10^6 cells with 20 μg of pME18Sneo-hCXCR3 (N-delta 4) plasmid DNA. Cells were pulsed at 400 Volts, 100 OHMs, 960 μFd. The transfected cells were under selection with 1 mg/ml G418 (Life Technologies, Gaithersburg, Md.). […] IP-10 (NEN Life Science Products, Boston, Mass.).
Preparation of Ba/F3-hCXCR3 (N-delta 4) membranes:
Ba/F3 cells expressing human CXCR3 (N-delta 4) were pelleted and resuspended in the lysis buffer containing 10 mM HEPES, pH 7.5 and Complete® protease inhibitors (1 tablet per 100 ml) (Boehringer Mannheim, Indianapolis, Ind.) at a cell density of 20×10^6 cells per ml. […] Large cellular debris was removed by centrifugation at 1,000×g. Cell membrane in the supernatant was sedimented at 100,000×g. The membrane was resuspended in the lysis buffer supplemented with 10% sucrose and stored at −80° C. Total protein concentration of the membrane was determined by BCA method from Pierce (Rockford, Ill.).
Human CXCR3 (N-delta 4) scintillation proximity assay (SPA):
The beads were spun down, washed once, resuspended in the binding buffer and transferred to a 96-well Isoplate (Wallac, Gaithersburg, Md.). […] IP-10 with tested compounds in a series of titration were added to start the reaction.

SMILES	IC50 [nM]
N#Cc1ccc(C(=O)N2CCC(N3CCN(c4ncc(C(=O)NCc5ccc(Br)cc5)cc4Cl)CC3)CC2)cc1 [compound 68]	> 100
N#Cc1ccc(CN2CCC(N3CCN(c4ncc(C(=O)NCc5ccc(Cl)cc5Cl)cc4Cl)CC3)CC2)cc1 [compound 69]	> 100
N#Cc1ccc(C(=O)N2CCC(N3CCN(c4ncc(C(=O)NCc5ccc(C(F)(F)F)cc5)cc4Br)CC3)CC2)cc1 [compound 70]	> 100
O=C(NCc1ccccc1)c1cnc(N2CCN(C3CCN(Cc4ccc(Cl)c(F)c4)CC3)CC2)c(Cl)c1 [compound 71]	> 100
O=C(NCc1ccccc1)c1cnc(N2CCN(C3CCN(Cc4ccc(Cl)cc4)CC3)CC2)c(Cl)c1 [compound 72]	> 100
O=C(NCc1ccc(C(F)(F)F)cc1)c1cnc(N2CCN(C3CCN(Cc4ccc(Cl)c(F)c4)CC3)CC2)c(Cl)c1 [compound 73]	> 100
CC(c1ccc([N+](=O)[O-])cc1)N1CCC(N2CCN(c3ncc(C(=O)NCc4ccc(Cl)c(Cl)c4)cc3Cl)CC2)CC1 (stereo not drawn) [compound 74]	> 100
O=C(NCc1ccccc1)c1cnc(N2CCN(C3CCN(Cc4ccc([N+](=O)[O-])cc4)CC3)CC2)c(Cl)c1 [compound 75]	> 100
CC(c1ccc([N+](=O)[O-])cc1)N1CCC(N2CCN(c3ncc(C(=O)NCc4ccc(F)c(F)c4)cc3Cl)CC2)CC1 (stereo not drawn) [compound 76]	> 100
O=C(NCc1cc(Cl)cc(Cl)c1)c1cnc(N2CCN(C3CCN(Cc4ccc(F)cc4)CC3)CC2)c(Cl)c1 [compound 77]	> 100
O=C(NCc1cc(Cl)cc(Cl)c1)c1cnc(N2CCN(C3CCN(Cc4ccc(F)c(F)c4)CC3)CC2)c(Cl)c1 [compound 78]	> 100
O=C(NCc1ccc(F)cc1F)c1cnc(N2CCN(C3CCN(Cc4ccc(Br)cc4)CC3)CC2)c(Cl)c1 [compound 79]	> 100
O=C(NCc1cc(Cl)cc(Cl)c1)c1cnc(N2CCN(C3CCN(Cc4ccc(Cl)c(F)c4)CC3)CC2)c(Cl)c1 [compound 80]	> 100
N#Cc1ccc(C(=O)N2CCC(N3CCN(c4ncc(C(=O)NCc5ccc(Cl)cc5F)cc4Cl)CC3)CC2)cc1 [compound 81]	> 100
O=C(NCCCc1ccccc1)c1cnc(N2CCN(C3CCN(Cc4ccc(Cl)cc4)CC3)CC2)c(Cl)c1 [compound 82]	> 100
N#Cc1ccc(C(=O)N2CCC(N3CCN(c4ncc(C(=O)NCc5ccc(F)c(Cl)c5)cc4Cl)CC3)CC2)cc1 [compound 83]	> 100
O=C(NCc1cccc(Cl)c1)c1cnc(N2CCN(C3CCN(Cc4ccc(Cl)cc4)CC3)CC2)c(Cl)c1 [compound 84]	> 100
O=C(NCc1ccc(C(F)(F)F)cc1)c1cnc(N2CCN(C3CCN(Cc4ccc(Cl)cc4)CC3)CC2)c(Cl)c1 [compound 85]	> 100
N#Cc1ccc(CN2CCC(N3CCN(c4ncc(C(=O)NCc5ccc(F)cc5F)cc4Cl)CC3)CC2)cc1 [compound 86]	> 100
O=C(NCc1ccc(Cl)cc1)c1cnc(N2CCN(C3CCN(Cc4ccc(F)cc4F)CC3)CC2)c(Cl)c1 [compound 87]	> 100
O=C(NCc1ccc(Cl)cc1F)c1cnc(N2CCN(C3CCN(Cc4ccc(F)cc4F)CC3)CC2)c(Cl)c1 [compound 88]	> 100
O=C(NCc1cc(Cl)cc(Cl)c1)c1cnc(N2CCN(C3CCN(Cc4ccc([N+](=O)[O-])cc4)CC3)CC2)c(Cl)c1 [compound 89]	> 100
O=C(NCc1ccc(Cl)c(Cl)c1)c1cnc(N2CCN(C3CCN(Cc4ccc(F)cc4F)CC3)CC2)c(Cl)c1 [compound 90]	> 100
O=C(NCc1cccc(F)c1)c1cnc(N2CCN(C3CCN(Cc4ccc(F)c(F)c4)CC3)CC2)c(Cl)c1 [compound 91]	> 100
O=C(NCc1ccc(C(F)(F)F)cc1)c1cnc(N2CCN(C3CCN(Cc4ccc(F)c(F)c4)CC3)CC2)c(Cl)c1 [compound 92]	> 100
O=C(NCc1ccc(Cl)cc1F)c1cnc(N2CCN(C3CCN(Cc4ccc(Cl)c(F)c4)CC3)CC2)c(Cl)c1 [compound 93]	> 100

Now from value to compound:

IC50 [nM]	SMILES
> 100	N#Cc1ccc(C(=O)N2CCC(N3CCN(c4ncc(C(=O)NCc5ccc(F)c(F)c5)cc4Cl)CC3)CC2)cc1 [compound 51]
> 100	O=C(NCc1cc(Cl)cc(Cl)c1)c1cnc(N2CCN(C3CCN(Cc4ccc(Cl)cc4)CC3)CC2)c(Cl)c1 [compound 52]
> 100	O=C(NCc1ccccc1)c1cnc(N2CCN(C3CCN(Cc4ccc(F)c(F)c4)CC3)CC2)c(Cl)c1 [compound 53]
> 100	COc1ccc(CN2CCC(N3CCN(c4ncc(C(=O)NCc5cccc(Cl)c5)cc4Cl)CC3)CC2)cc1 [compound 54]
> 100	O=C(NCc1ccc(F)cc1)c1cnc(N2CCN(C3CCN(Cc4ccc(F)cc4)CC3)CC2)c(Cl)c1 [compound 55]
> 100	COc1ccc(CN2CCC(N3CCN(c4ncc(C(=O)NCc5ccc(F)cc5F)cc4Cl)CC3)CC2)cc1 [compound 56]
> 100	O=C(NCc1cccc(Cl)c1)c1cnc(N2CCN(C3CCN(Cc4ccc(F)cc4)CC3)CC2)c(Cl)c1 [compound 57]
> 100	O=C(NCc1ccc(F)cc1F)c1cnc(N2CCN(C3CCN(Cc4ccc(F)cc4)CC3)CC2)c(Cl)c1 [compound 58]
> 100	O=C(NCc1ccc(Cl)cc1Cl)c1cnc(N2CCN(C3CCN(Cc4ccc(F)cc4F)CC3)CC2)c(Cl)c1 [compound 59]
> 100	O=C(NCCOc1ccccc1)c1cnc(N2CCN(C3CCN(Cc4ccc(F)cc4)CC3)CC2)c(Cl)c1 [compound 60]
> 100	N#Cc1ccc(CN2CCC(N3CCN(c4ncc(C(=O)NCc5cccc(F)c5)cc4Cl)CC3)CC2)cc1 [compound 61]
> 100	O=C(NCc1ccc(F)c(F)c1)c1cnc(N2CCN(C3CCN(Cc4ccc(Br)cc4F)CC3)CC2)c(Cl)c1 [compound 62]
> 100	COc1ccc(CN2CCC(N3CCN(c4ncc(C(=O)NCc5ccc(Cl)cc5Cl)cc4Cl)CC3)CC2)cc1 [compound 63]
> 100	N#Cc1ccc(C(=O)N2CCC(N3CCN(c4ncc(C(=O)NCc5ccc(Cl)c(Cl)c5)cc4Cl)CC3)CC2)cc1 [compound 64]
> 100	O=C(NCc1ccc(Cl)c(Cl)c1)c1cnc(N2CCN(C3CCN(Cc4ccc(Br)cc4F)CC3)CC2)c(Cl)c1 [compound 65]
> 100	O=C(NCc1ccc(C(F)(F)F)cc1)c1cnc(N2CCN(C3CCN(Cc4ccc(F)cc4)CC3)CC2)c(Cl)c1 [compound 66]
> 100	O=C(NCc1ccc(Br)cc1)c1cnc(N2CCN(C3CCN(Cc4ccc(F)cc4F)CC3)CC2)c(Cl)c1 [compound 67]
25 to 100	O=C(NCc1cccc(F)c1)c1cnc(N2CCN(C3CCN(Cc4ccc([N+](=O)[O-])cc4)CC3)CC2)c(Cl)c1 [compound 94]
25 to 100	O=C(NCc1cccc(F)c1)c1cnc(N2CCN(C3CCN(Cc4ccc(Cl)cc4)CC3)CC2)c(Cl)c1 [compound 95]
25 to 100	O=C(NCc1ccc(F)c(F)c1)c1cnc(N2CCN(C3CCN(Cc4ccc(F)cc4F)CC3)CC2)c(Cl)c1 [compound 96]
25 to 100	O=C(NCc1ccc(F)cc1F)c1cnc(N2CCN(C3CCN(Cc4ccc(Cl)cc4)CC3)CC2)c(Cl)c1 [compound 97]
25 to 100	O=C(NCc1ccc(C(F)(F)F)cc1)c1cnc(N2CCN(C3CCN(Cc4ccc([N+](=O)[O-])cc4)CC3)CC2)c(Cl)c1 [compound 98]
25 to 100	O=C(NCc1ccc(Br)cc1)c1cnc(N2CCN(C3CCN(Cc4ccc(F)c(F)c4)CC3)CC2)c(Cl)c1 [compound 99]
25 to 100	O=C(NCc1cccc(F)c1)c1cnc(N2CCN(C3CCN(Cc4ccc(Br)cc4)CC3)CC2)c(Cl)c1 [compound 100]
25 to 100	N#Cc1ccc(C(=O)N2CCC(N3CCN(c4ncc(C(=O)NCc5ccc(Cl)cc5)cc4Cl)CC3)CC2)cc1 [compound 101]
25 to 100	O=C(NCc1ccc(F)c(Cl)c1)c1cnc(N2CCN(C3CCN(Cc4ccc(F)cc4F)CC3)CC2)c(Cl)c1 [compound 102]
25 to 100	COc1ccc(CN2CCC(N3CCN(c4ncc(C(=O)NCc5ccc(Cl)cc5)cc4Cl)CC3)CC2)cc1 [compound 103]
25 to 100	CC(NC(=O)c1cnc(N2CCN(C3CCN(Cc4ccc(Cl)cc4)CC3)CC2)c(Cl)c1)c1ccccc1 (stereo not drawn) [compound 104]
